Measurements: article PMC2989642 (The European journal of neuroscience, 2010)
Where “and” joins values, the source holds several entries; their conditions need not be identical. Equal values may be shown once. Read-outs that look alike come from different tables or passages of the source.

How the values were obtained:
[1] = target: hetero-oligomeric nAChR binding sites in SCG membranes (Mus musculus, UniProt Q8R493+Q8R4G9)
[2] = target: nAChRs in adult (intact) mouse SCG; conditions: read-out: KD of [3H]-epibatidine binding, ref Del Signore et al., 2002; cited from earlier work
[3] = target: α3β4 receptors (in the α5β2 KO) (Mus musculus, UniProt Q8R493+Q8R4G9); assay: cell-based
Chain of α3β4 receptors (in the α5β2 KO) (Q8R4G9 26-499): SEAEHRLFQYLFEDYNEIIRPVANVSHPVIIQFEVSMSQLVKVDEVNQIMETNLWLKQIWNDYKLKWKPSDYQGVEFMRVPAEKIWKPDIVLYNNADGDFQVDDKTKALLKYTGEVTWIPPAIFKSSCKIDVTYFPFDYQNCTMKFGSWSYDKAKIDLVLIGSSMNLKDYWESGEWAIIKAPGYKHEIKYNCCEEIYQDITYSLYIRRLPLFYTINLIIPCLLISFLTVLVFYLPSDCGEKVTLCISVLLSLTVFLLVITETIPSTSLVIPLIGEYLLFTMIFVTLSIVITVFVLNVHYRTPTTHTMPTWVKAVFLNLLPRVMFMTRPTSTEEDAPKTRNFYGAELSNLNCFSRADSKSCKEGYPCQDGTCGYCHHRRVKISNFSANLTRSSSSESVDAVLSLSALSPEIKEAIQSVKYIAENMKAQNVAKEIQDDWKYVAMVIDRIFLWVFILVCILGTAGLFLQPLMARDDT
Chain of α3β4 receptors (in the α5β2 KO) (Q8R493 21-495): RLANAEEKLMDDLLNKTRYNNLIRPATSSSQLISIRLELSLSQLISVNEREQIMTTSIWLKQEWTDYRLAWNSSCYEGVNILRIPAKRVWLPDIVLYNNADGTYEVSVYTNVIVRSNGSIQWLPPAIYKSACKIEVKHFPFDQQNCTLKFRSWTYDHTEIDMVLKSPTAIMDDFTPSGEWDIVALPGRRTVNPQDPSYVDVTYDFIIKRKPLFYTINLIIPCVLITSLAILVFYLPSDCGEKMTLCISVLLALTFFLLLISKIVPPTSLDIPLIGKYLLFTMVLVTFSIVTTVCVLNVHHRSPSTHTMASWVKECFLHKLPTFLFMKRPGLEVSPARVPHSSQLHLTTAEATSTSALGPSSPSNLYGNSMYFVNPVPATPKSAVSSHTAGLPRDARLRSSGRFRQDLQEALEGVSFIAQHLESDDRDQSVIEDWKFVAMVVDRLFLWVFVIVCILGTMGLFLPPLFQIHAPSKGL

[4] = target: α3β4α5 receptors (in the β2 KO) (Mus musculus, UniProt Q8R493+Q8R4G9); assay type: cell-based
Chain of α3β4α5 receptors (in the β2 KO) (Q8R4G9 26-499): as the sequence (Q8R4G9 26-499) above
Chain of α3β4α5 receptors (in the β2 KO) (Q8R493 21-495): as the sequence (Q8R493 21-495) above
Chain of α3β4α5 receptors (in the β2 KO) (Q2MKA5 30-467 partner): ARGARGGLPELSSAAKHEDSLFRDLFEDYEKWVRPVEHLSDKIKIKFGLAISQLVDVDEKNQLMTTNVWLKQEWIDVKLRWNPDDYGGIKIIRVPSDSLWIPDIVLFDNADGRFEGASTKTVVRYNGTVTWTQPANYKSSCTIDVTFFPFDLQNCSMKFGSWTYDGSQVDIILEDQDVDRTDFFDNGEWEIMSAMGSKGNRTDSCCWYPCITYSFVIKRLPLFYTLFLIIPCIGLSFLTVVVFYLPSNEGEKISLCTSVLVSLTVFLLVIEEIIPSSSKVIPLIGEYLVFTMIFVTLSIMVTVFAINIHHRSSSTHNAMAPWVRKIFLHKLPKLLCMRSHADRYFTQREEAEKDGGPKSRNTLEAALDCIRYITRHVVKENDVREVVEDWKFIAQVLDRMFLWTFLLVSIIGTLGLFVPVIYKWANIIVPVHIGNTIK

[5] = target: α3β2 receptors (in the α5β4 KO) (Mus musculus, UniProt Q8R4G9+Q9ERK7); assay: cell-based; assay type: cell-based
Chain of α3β2 receptors (in the α5β4 KO) (Q8R4G9 26-499): as the sequence (Q8R4G9 26-499) above
Chain of α3β2 receptors (in the α5β4 KO) (Q9ERK7 26-501): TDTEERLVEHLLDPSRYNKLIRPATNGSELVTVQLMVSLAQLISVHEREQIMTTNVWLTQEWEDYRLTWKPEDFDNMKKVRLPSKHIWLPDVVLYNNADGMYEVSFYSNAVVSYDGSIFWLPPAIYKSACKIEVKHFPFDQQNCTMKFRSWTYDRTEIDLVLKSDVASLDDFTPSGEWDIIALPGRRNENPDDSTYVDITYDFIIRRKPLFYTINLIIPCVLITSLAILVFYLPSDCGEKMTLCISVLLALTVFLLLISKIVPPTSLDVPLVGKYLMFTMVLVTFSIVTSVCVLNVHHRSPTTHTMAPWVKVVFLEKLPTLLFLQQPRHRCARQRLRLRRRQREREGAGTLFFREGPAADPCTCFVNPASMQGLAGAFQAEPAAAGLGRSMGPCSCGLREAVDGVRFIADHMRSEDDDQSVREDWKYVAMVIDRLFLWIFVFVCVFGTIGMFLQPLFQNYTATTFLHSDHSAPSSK

[6] = test system: hα3β4; conditions: ref Nelson et al., 2001, cited from earlier work
[7] = test system: hα3α5β4; conditions: probed with 300 μM ACh; ref Nelson et al., 2001; cited from earlier work
[8] = test system: rα3β4 receptors; conditions: ref Wong et al., 1995; cited from earlier work
[9] = test system: human α3β4 receptors; conditions: ref Chavez-Noriega et al., 1997; cited from earlier work
[10] = test system: α7 nAChRs; assay type: cell-based, mouse
[11] = test system: α7 nAChRs; assay type: cell-based, mouse; remark: listed apart in the source
[12] = target: T1, α7 nAChRs (Mus musculus, UniProt P49582); assay type: cell-based
T1 sequence (P49582 23-502): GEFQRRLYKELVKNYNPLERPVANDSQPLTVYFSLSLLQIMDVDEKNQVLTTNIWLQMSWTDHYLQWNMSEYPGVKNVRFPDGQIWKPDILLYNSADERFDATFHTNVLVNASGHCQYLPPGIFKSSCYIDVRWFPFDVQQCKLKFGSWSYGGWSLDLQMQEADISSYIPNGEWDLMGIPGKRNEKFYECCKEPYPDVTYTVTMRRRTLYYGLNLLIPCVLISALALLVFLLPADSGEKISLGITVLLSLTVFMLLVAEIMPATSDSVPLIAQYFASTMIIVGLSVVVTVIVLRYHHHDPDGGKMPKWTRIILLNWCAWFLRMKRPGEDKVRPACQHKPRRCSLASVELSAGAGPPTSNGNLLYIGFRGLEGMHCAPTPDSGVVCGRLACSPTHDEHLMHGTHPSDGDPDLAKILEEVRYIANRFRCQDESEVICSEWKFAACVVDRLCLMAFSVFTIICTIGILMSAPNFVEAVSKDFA

[13] = target: T1, α7 nAChRs; assay type: cell-based; remark: listed apart in the source
[14] = test system: SCG neurons from α5α7β2 KO animals; assay type: cell-based, mouse
[15] = target: α7 receptors (Gallus gallus, UniProt P22770); assay type: cell-based, chick
Chain of α7 receptors (P22770 23-502 limits assumed): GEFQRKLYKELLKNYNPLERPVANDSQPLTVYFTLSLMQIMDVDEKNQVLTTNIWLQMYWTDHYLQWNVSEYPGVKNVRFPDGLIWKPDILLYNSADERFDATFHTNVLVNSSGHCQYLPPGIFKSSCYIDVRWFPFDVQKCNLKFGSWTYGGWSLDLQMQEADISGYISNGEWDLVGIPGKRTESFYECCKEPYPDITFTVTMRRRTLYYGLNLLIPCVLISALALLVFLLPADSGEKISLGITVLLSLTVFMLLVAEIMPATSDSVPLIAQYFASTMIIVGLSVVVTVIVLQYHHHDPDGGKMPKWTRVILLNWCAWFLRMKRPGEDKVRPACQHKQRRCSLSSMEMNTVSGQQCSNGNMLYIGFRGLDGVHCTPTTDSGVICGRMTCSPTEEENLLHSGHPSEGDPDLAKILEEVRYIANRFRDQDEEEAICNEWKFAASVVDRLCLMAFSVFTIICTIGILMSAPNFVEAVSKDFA

Chain of hetero-oligomeric nAChR binding sites in SCG membranes (Q8R4G9 26-499): as the sequence (Q8R4G9 26-499) above
Chain of hetero-oligomeric nAChR binding sites in SCG membranes (Q8R493 21-495): as the sequence (Q8R493 21-495) above
Chain of hetero-oligomeric nAChR binding sites in SCG membranes (Q2MKA5 30-467 partner): as the sequence (Q2MKA5 30-467 partner) above
Chain of hetero-oligomeric nAChR binding sites in SCG membranes (Q9ERK7 26-501 partner): as the sequence (Q9ERK7 26-501) above

For `Clc1ccc(C2CC3CCC2N3)cn1` (racemic) [[^3H]-epibatidine, [5,6.bicycloheptyl-^3H](+/−)epibatidine], the “Bmax of [3H]-epibatidine binding” value ([1]; averaged from 4 experiments, P18 WT SCG membranes) is listed as 345.8 ± 25.6 fmol/mg protein, the “Bmax of [3H]-epibatidine binding” value ([1]; single experiment shown in Fig. 1A) is listed as 371.2 ± 13.5 fmol/mg protein and the Kd [2] is listed as 0.000137 µM.

In the case of `CC(=O)OCC[N+](C)(C)C` [ACh, acetylcholine], the “Af (fast amplitude, share of current)” value [3] is reported as 13.0 ± 0.7 % ^1, the “Af + As + C (total amplitude)” value [3] is reported as 3747 ± 215 pA ^6 and the “As (slow amplitude, share of current)” value [3] is reported as 56.3 ± 2.3 % ^3. The “C (plateau, share of current)” value [3] was 30.5 ± 2.8 % ^5, the Hill coefficient [3] was 1.60 ± 0.05 and the “Tf (fast decay time constant)” value [3] was 444 ± 22 (msec) ^2. The “Ts (slow decay time constant)” value [3] was 5495 ± 496 (msec) ^4, the “Af (fast amplitude, share of current)” value [4] was 16.8 ± 1.1 % ^1 and the “Af + As + C (total amplitude)” value [4] was 3907 ± 230 pA ^6. The “Af, fast” value [4] was −809 pA, the “As (slow amplitude, share of current)” value [4] was 48.6 ± 2.6 % ^3 and the “As, slow” value [4] was −2899 pA. The “C (plateau, share of current)” value [4] was 34.5 ± 2.8 % ^5, the “Tf (fast decay time constant)” value [4] was 449 ± 30 (msec) ^2 and the “Tf, fast” value [4] was 0.47 s. For the same compound, the “Ts (slow decay time constant)” value [4] was 5592 ± 509 (msec) ^4, the “Ts, slow” value [4] was 6.98 s and the plateau [4] was −943 pA. For the same compound, the “Af (fast amplitude, share of current)” value [5] was 50.5 ± 2.1%, the “Af + As + C (total amplitude)” value [5] was 1166 ± 77 pA and the “Af, fast” value [5] was −1171 pA. The “As (slow amplitude, share of current)” value [5] was 36.2 ± 1.7%, the “As, slow” value [5] was −472 pA and the “C (plateau, share of current)” value [5] was 13.2 ± 1.0%. For the same compound, the EC50 [5] was 169 ± 25.2 µM, the Hill coefficient [5] was 0.67 ± 0.04 and the “Tf, fast” value [5] was 115 ms. For the same compound, the “Ts, slow” value [5] was 1477 ms, the plateau [5] was −140 pA and the decay time constant ([6]; probed with 300 μM ACh) was 495 ms. The decay time constant [7] was 563 ms.

In the case of `O=c1cccc2n1C[C@@H]1CNC[C@H]2C1` [Cytisine, cytisine], the Hill coefficient [3] is reported as 1.44 ± 0.06, the “low-concentration potency ratio cytisine/DMPP” value [3] is reported as 1.23 and the “potency ratio cytisine/DMPP (low concentration)” value [3] is reported as 1.34. The EC50 ([3]; EC50) was 34.5 ± 2.26 µM, the EC50 ([3]; fictitious EC50) was 21.7 µM and the EC50 [4] was 37.7 ± 2.43 µM. For the same compound, the Hill coefficient [4] was 1.10 ± 0.02, the “low-concentration potency ratio cytisine/DMPP” value [4] was 0.76 ± 0.04 and 0.76 and the “potency ratio cytisine/DMPP (low concentration)” value [4] was 0.67. For the same compound, the EC50 ([4]; read-out: fictitious EC50) was 26.2 µM, the “potency ratio cytisine/DMPP” value [6] was 1.29 and the “potency ratio cytisine/DMPP” value [8] was 1.47. The “potency ratio cytisine/DMPP” value [9] was 4.

In the case of `C[N+]1(C)CCN(c2ccccc2)CC1.[I-]` [DMPP, 1,1-dimethyl-4-phenylpiperazinium iodide], the Hill coefficient [3] is reported as 1.91 ± 0.06, the EC50 ([3]; EC50) is reported as 19 ± 0.76 µM and the EC50 ([3]; fictitious EC50) is reported as 16.1 µM. For the same compound, the EC50 [4] was 23 ± 1.17 µM, the Hill coefficient [4] was 1.79 ± 0.08 and the EC50 ([4]; read-out: fictitious EC50) was 39.2 µM. The EC50 [5] was 11 ± 1.79 µM and the Hill coefficient [5] was 1.21 ± 0.12.

For `CCN1C[C@]2(COC(=O)c3ccccc3N3C(=O)C[C@H](C)C3=O)CC[C@H](OC)[C@@]34[C@@H]5C[C@H]6[C@H](OC)[C@@H]5[C@](O)(C[C@@H]6OC)[C@@](O)([C@@H](OC)[C@H]23)[C@@H]14` [MLA, methyllycaconitine], the “effect of MLA on peak currents in response to 500 μM ACh” value [10] was “unaffected” and the “effect of MLA on peak currents in response to 500 μM ACh” value [11] was “unaffected”.

In the case of `COc1cc(OC)c(NC(=O)Nc2cc(C)on2)cc1Cl` [PNU-120596], the “choline-induced currents with 10 μM PNU-120596 versus without” value [12] is reported as “significantly larger”, the “peak currents in response to 300 μM ACh in the presence of 10 μM PNU-120596” value (shortened to “peak currents in response to 300 μM ACh”) ([10]; n = 13) is reported as “somewhat reduced” and the “choline-induced currents with 10 μM PNU-120596 versus without” value [13] is reported as “significantly larger”. For the same compound, the “peak currents in response to 300 μM ACh” value ([11]; n = 14) was “somewhat enhanced”, the “choline-induced currents with 10 μM PNU-120596 versus without” value [14] was “not significantly different” and the “peak currents in response to 300 μM ACh” value ([14]; n = 26) was “somewhat enhanced”. For the same compound, the “Peak currents in response to 10 mM choline in the presence of PNU-120596” value [15] was 1688 ± 204 pA/pF.

With `C[N+](C)(C)CCO` [choline] the “currents induced by choline” value [12] was “negligible currents”, the “currents induced by choline” value [11] was “slowly decaying currents of considerable amplitude” and the “Peak currents in response to 10 mM choline” value [15] was 40.4 ± 3.8 pA/pF.
